Target: PI3K-alpha (Homo sapiens (Human), UniProt P42336)
Experiment: HTRF PI3K biochemical assay, alpha isoform
Conditions: ratio PI3K-alpha IC50 value/PI3K-delta IC50 value
Excerpt: HTRF PI3K Biochemical Assay to Measure Intrinsic Potency of Compound Inhibitors
The PI3-Kinase biochemical assays were developed to measure the intrinsic potency and compound dependent inhibition of the alpha, beta, delta, and gamma PI3K isoform enzymes. This assay was developed and further optimized from a kit produced by Upstate (Millipore catalog #33-047) and has been configured for HTS and SAR screening. Briefly, this procedure exploits the exquisite specificity and high affinity binding of enzyme reaction substrate phosphatidyl(3,4,5)triphosphate (PIP3) to the GRP1 pleckstrin homology (PH) domain to generate the signal. In the absence of PIP3, an HTRF (Homogeneous Time-Resolved Fluorescence energy transfer) complex is formed consisting of europium (Eu)-labeled anti-GST, GST tagged GRP1-PH domain, biotin-PIP3 and streptavidin conjugated APC. The native PIP3 produced by PI3-Kinase activity disrupts in a competitive manner the biotin-PIP3 from the PH domain, resulting in the loss of energy transfer (HTRF complex) and a decrease in the signal. The format of this assay is the same for all 4 isoforms of PI3K; the differences lie in the concentration of enzyme used to achieve robust assay window. The alpha, beta, and delta assays are run at 0.5, 1, and 0.3 nM enzymes and the gamma assay is run at 5 nM enzyme. The ATP concentration is 100 uM in the alpha, beta, and delta assays and 50 uM ATP in the gamma assay. All reactions are run at 5 uM PIP2.
Compounds are serially diluted (3-fold in 100% DMSO) across a 384-well polypropylene source plated from column 3 to column 12 and column 13 to column 22, to yield 10 concentration dose response for each test compound. Columns 1, 2, 23 and 24 contain either only DMSO or pharmacological known control inhibitor.
The PI3-Kinase biochemical assay was optimized using the HTRF kit provided by Upstate (Millipore). The assay kit contains six reagents: 1) 4× Reaction Buffer; 2) native PIP2 (substrate); 3) Stop (EDTA); 4) Detection Mix A (Streptavidin-APC); 5) Detection Mix B (Eu-labeled Anti-GST plus GST-tagged PH-domain); 6) Detection Mix C.
PI3Kinase Reaction Buffer is prepared by dilution the stock 1:4 with de-ionized water. […] Enzyme addition and compound pre-incubation are initiated by the addition of 1.25 ul of PI3K (at twice its final concentration) in the 1× reaction buffer to all wells using a BioRaptor. Plates are incubated at room temperature for 15 minutes. Reactions are initiated by addition of 1.25 ul of 2× substrate solution (PIP2 and ATP in 1× reaction buffer) using BioRaptor. Plates are incubated in humidified chamber at room temperature for one hour. Reactions are quenched by addition of 0.625 uL of stop solution to all wells using the BioRaptor. The quenched reactions are then processed to detect product formation by adding 0.625 uL of Detection Solution to all wells using the BioRaptor (Detection mix C, Detection Mix A, and Detection Mix B combined together in an 18:1:1 ratio prepared 2 hours prior to use).
The loss of the HTRF signal is due to the displacement of biotinylated-PIP3 from the PH domain by the PI3K-dependent conversion of PIP2 to PIP3. This loss of signal is nonlinear with respect to both increasing product and time. This non-linear detection will impact accuracy of IC50 calculations; therefore, there is a need for a correction factor to obtain more accurate IC50 values. This correction is derived from a PIP3 standard curve run in a separate assay plate. All data were calculated using the ratio of acceptor (APC) to donor (Europium) fluorescence in each well of the assay plate. […] An IC50 was then calculated fitting the % inhibition data to the equation: % inhibition=min+(Max−min)/1+([inhibitor]/IC50)^n) where min is the % inhibition […], max is the signal in DMSO control, and n is the Hill slope.

Chain of PI3K-alpha (P42336 whole entry, looked up, canonical isoform): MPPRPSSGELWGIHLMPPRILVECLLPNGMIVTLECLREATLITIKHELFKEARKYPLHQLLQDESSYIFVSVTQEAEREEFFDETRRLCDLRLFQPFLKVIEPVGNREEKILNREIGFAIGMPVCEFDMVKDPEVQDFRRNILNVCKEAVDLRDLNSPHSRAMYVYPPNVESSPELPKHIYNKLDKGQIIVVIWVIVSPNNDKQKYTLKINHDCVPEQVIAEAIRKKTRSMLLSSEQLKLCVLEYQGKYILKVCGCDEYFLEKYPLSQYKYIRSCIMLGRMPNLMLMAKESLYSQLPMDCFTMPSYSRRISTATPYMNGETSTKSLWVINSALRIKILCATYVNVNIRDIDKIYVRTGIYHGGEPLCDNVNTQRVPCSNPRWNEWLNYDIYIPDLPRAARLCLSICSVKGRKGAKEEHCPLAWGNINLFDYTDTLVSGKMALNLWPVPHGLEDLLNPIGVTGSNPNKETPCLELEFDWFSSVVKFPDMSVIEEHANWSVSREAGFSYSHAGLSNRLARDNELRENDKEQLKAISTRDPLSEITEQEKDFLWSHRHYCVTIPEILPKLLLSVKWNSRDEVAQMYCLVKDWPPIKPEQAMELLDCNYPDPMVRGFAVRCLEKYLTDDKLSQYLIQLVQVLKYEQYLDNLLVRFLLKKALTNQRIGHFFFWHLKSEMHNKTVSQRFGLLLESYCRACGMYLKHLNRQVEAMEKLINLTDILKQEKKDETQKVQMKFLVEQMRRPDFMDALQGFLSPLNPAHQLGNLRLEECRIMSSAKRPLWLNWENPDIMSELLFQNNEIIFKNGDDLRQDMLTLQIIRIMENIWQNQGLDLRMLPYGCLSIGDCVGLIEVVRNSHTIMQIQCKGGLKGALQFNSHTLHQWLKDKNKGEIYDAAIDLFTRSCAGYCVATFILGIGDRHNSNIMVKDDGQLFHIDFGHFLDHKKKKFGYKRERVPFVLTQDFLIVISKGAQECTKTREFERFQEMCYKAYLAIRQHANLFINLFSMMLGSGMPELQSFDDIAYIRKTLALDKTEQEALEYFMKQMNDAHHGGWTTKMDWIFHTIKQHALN
Chain of PI3K-alpha (P27986 whole entry partner, looked up, canonical isoform): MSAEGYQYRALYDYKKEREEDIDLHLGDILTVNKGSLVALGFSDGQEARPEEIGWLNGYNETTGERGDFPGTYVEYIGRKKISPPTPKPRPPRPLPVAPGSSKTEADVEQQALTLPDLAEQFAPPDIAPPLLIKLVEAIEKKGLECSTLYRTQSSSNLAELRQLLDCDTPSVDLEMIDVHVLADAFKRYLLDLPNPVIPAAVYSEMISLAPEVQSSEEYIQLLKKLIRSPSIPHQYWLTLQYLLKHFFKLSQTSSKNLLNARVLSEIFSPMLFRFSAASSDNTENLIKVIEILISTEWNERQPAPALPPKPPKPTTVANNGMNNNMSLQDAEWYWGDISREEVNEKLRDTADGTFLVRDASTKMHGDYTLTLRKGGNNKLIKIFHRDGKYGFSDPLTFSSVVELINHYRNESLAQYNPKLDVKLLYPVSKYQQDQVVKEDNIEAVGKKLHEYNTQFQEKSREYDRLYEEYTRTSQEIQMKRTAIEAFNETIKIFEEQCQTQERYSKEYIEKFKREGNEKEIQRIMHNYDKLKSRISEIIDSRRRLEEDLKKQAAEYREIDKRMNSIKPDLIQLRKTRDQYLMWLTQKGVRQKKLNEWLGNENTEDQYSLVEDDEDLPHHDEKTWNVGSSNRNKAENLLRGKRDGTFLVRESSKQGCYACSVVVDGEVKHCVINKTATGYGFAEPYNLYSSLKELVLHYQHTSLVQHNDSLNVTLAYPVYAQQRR

SMILES | Relative Selectivity versus PI3Kalpha
CCn1ncc(-c2nc3c(O[C@H]4CCN(c5nccc6sccc56)C4)ncnc3n2C)c1C [Compound 7-3, 8-(1-ethyl-5-methyl-1H-pyrazol-4-yl)-9-methyl-6-{[(3S)-1-thieno[3,2-c]pyridin-4-ylpyrrolidin-3-yl]oxy}-9H-purine] | >10
CCC(=O)N1CC[C@H](Oc2ncnc3c2nc(-c2ccc(Cl)nc2)n3C)C1 [Compound 3-17, 8-(6-chloropyridin-3-yl)-9-methyl-6-{[(3S)-1-propanoylpyrrolidin-3-yl]oxy}-9H-purine] | >10
Cn1c(-c2cncc3ccccc23)nc2c(O[C@H]3CCN(C(=O)OC(C)(C)C)C3)ncnc21 [Compound 1-28, tert-butyl (3S)-3-[(8-isoquinolin-4-yl-9-methyl-9H-purin-6-yl)oxy]pyrrolidine-1-carboxylate] | >10
CCn1ncc(-c2nc3c(OC4CCC(C(=O)N5CCOCC5)C4)ncnc3n2C)c1C (stereo not drawn) [Compound 8-1] | 9
CCn1c(-c2cnc(OC)c(C)c2)nc2c(O[C@H]3CCN(C(=O)C4CC4)C3)ncnc21 [Compound 3-49, 6-{[(3S)-1-(cyclopropylcarbonyl)pyrrolidin-3-yl]oxy}-9-ethyl-8-(6-methoxy-5-methylpyridin-3-yl)-9H-purine] | >10
CCn1ncc(C(=O)N2CC[C@H](Oc3ncnc4c3nc(-c3cnn(CC)c3C)n4C)C2)c1C [Compound 2-63, 8-(1-ethyl-5-methyl-1H-pyrazol-4-yl)-6-({(3S)-1-[(1-ethyl-5-mcthyl-1H-pyrazol-4-yl)carbonyl]pyrrolidin-3-yl}oxy)-9-methyl-9H-purine] | 10
CCn1c(C(=O)NCC(F)(F)F)nc2c(O[C@H]3CCN(C(=O)N4CC(OC)C4)C3)ncnc21 [Compound 15-2, (S)-9-ethyl-6-((1-(3-methoxyazetidine-1-carbonyl)pyrrolidin-3-yl)oxy)-N-(2,2,2-trifluoroethyl)-9H-purine-8-carboxamide] | >10
CCn1c(-c2cnc(C)nc2)nc2c(O[C@H]3CCN(C(=O)[C@@H]4CCC[C@H]4N)C3)ncnc21 [Compound 2-101, (1R,2R)-2-{[(3S)-3-{[9-ethyl-8-(2-methylpyrimidin-5-yl)-9H-purin-6-yl]oxy}pyrrolidin-1-yl]carbonyl}cyclopentanamine] | >10
CCC(=O)N1CC[C@H](Oc2ncnc3c2nc(-c2ccc4[nH]ccc4c2)n3C)C1 [Compound 3-7, (S)-1-(3-((8-(1H-indol-5-yl)-9-methyl-9H-purin-6-yl)oxy)pyrrolidin-1-yl)propan-1-one] | >10
CCn1ncc(-c2nc3c(S[C@H]4CCN(c5ncnc6sccc56)C4)ncnc3n2C)c1C [Compound 10-13, (S)-4-(3-((8-(1-ethyl-5-methyl-1H-pyrazol-4-yl)-9-methyl-9H-purin-6-yl)thio)pyrrolidin-1-yl)thieno[2,3-d]pyrimidine] | >10
COc1ncc(-c2nc3c(O[C@H]4CCN(C(=O)OC(C)(C)C)C4)ncnc3n2C)cc1C [Compound 1-13, tert-butyl (3S)-3-{[8-(6-methoxy-5-methylpyridin-3-yl)-9-methyl-9H-purin-6-yl]oxy}pyrrolidine-1-carboxylate] | >10
CCn1c(-c2cnc(C)nc2)nc2c(O[C@H]3CCN(S(=O)(=O)CC)C3)ncnc21 [Compound 4-8, (S)-9-ethyl-6-((1-(ethylsulfonyl)pyrrolidin-3-yl)oxy)-8-(2-methylpyrimidin-5-yl)-9H-purine] | >10
CCn1c(-c2cnc(OC)c(F)c2)nc2c(O[C@H]3CCN(C(=O)C4CC4)C3)ncnc21 [Compound 3-53, 6-{[(3S)-1-(cyclopropylcarbonyl)pyrrolidin-3-yl]oxy}-9-ethyl-8-(5-fluoro-6-methoxypyridin-3-yl)-9H-purine] | >10
CCC(=O)N1CC[C@H](Oc2ncnc3c2nc(-c2ccc(OC)nc2)n3C)C1 [Compound 3-33, 8-(6-methoxypyridin-3-yl)-9-methyl-6-{[(3S)-1-propanoylpyrrolidin-3-yl]oxy}-9H-purine] | >10
Cc1nn(C)cc1-c1nc2c(O[C@H]3CCN(C(=O)OC(C)(C)C)C3)ncnc2n1C [Compound 1-16, tert-butyl (3S)-3-{[8-(1,3-dimethyl-1H-pyrazol-4-yl)-9-methyl-9H-purin-6-yl]oxy}pyrrolidine-1-carboxylate] | >9
CCn1c(-c2cnc(C)nc2)nc2c(O[C@H]3CCN(C(=O)OC(C)(C)C)C3)ncnc21 [Compound 1-3, (S)-tert-butyl 3-(9-ethyl-8-(2-methylpyrimidin-5-yl)-9H-purin-6-yloxy)pyrrolidine-1-carboxylate] | >10
CCn1c(-c2cnc3[nH]ccc3c2)nc2c(O[C@H]3CCN(C(=O)C4CC4)C3)ncnc21 [Compound 3-25, 6-{[(3S)-1-(cyclopropylcarbonyl)pyrrolidin-3-yl]oxy}-9-ethyl-8-(1H-pyrrolo[2,3-b]pyridin-5-yl)-9H-purine] | >10
CCn1c(-c2cnc(C)nc2)nc2c(O[C@H]3CCN(C(=O)N4CCC(F)(F)C4)C3)ncnc21 [Compound 5-26, 6-({(3S)-1-[(3,3-difluoropyrrolidin-1-yl)carbonyl]pyrrolidin-3-yl}oxy)-9-ethyl-8-(2-methylpyrimidin-5-yl)-9H-purine] | >10
CCn1c(-c2cnc(C)nc2)nc2c(O[C@H]3CCN(C(=O)C4CCOC4)C3)ncnc21 (stereo partly drawn) [Compound 2-113, 9-ethyl-8-(2-methylpyrimidin-5-yl)-6-{[(3S)-1-(tetrahydrofuran-3-ylcarbonyl)pyrrolidin-3-yl]oxy}-9H-purine] | >10
CCn1ncc(-c2nc3c(S[C@H]4CCN(c5ccncn5)C4)ncnc3n2C)c1C [Compound 10-12, (S)-8-(1-ethyl-5-methyl-1H-pyrazol-4-yl)-9-methyl-6-((1-(pyrimidin-4-yl)pyrrolidin-3-yl)thio)-9H-purine] | >10
CCn1ncc(-c2nc3c(O[C@H]4CCN(C(=O)C5CCCO5)C4)ncnc3n2C)c1C (stereo partly drawn) [Compound 2-17, 8-(1-ethyl-5-methyl-1H-pyrazol-4-yl)-9-methyl-6-{[(3S)-1-(tetrahydrofuran-2-ylcarbonyl)pyrrolidin-3-yl]oxy}-9H-purine] | >10
CCC(=O)N1CC[C@H](Oc2ncnc3c2nc(CC(C)C)n3CC)C1 [Compound 14-3, 9-ethyl-8-(2-methylpropyl)-6-{[(3S)-1-propanoylpyrrolidin-3-yl]oxy}-9H-purine] | >10
CCn1c(N2CCC(C)C2)nc2c(O[C@H]3CCN(C(=O)OC(C)(C)C)C3)ncnc21 (stereo partly drawn) [Compound 13-8, tert-butyl (3S)-3-{[9-ethyl-8-(3-methylpyrrolidin-1-yl)-9H-purin-6-yl]oxy}pyrrolidine-1-carboxylate] | >10
CCC(=O)N1CC[C@H](Oc2ncnc3c2nc(CC(C)C)n3C)C1 [Compound 14-4, 9-methyl-8-(2-methylpropyl)-6-{[(3S)-1-propanoylpyrrolidin-3-yl]oxy}-9H-purine] | >10

Reference: patent US9730940B2, “Purine inhibitors of human phosphatidylinositol 3-kinase delta” (priority 2012, dated 2017)
